Measured values from patent US20220370486A1, “COMBINATION TREATMENT OF SYSTEMIC FUNGAL INFECTIONS” (The Board of Trustees of the University of Illinois, priority 2019, published 2022).
≈ marks a conversion by molar mass, not a printed value. Read-outs that look alike come from different tables or passages of the source.

Assays:
C. albicans 967374 = experiment: Checkerboard broth microdilution (CLSI); format: cell-based; conditions: isolate 967374; for MIC: single agent
Experimental: (§1) Isolates were tested against varying concentrations of amphotericin B and C2′epiAmB (range, 0.06 to 4 mg/L) and combined with fluconazole (range, 0.12 to 128 mg/L) or ketoconazole (range 0.008 to 8 mg/L) or voriconazole (range, 0.004 to 4 mg/L) using a checkerboard grid design following the Clinical and Laboratory Standards Institute (CLSI) broth microdilution method (M23Ed5).

C. auris 1081160 = experiment: Checkerboard broth microdilution (CLSI); format: cell-based; conditions: isolate 1081160; for MIC: Candidozyma auris, single agent
Experimental: as §1

C. glabrata 1046695 = experiment: Checkerboard broth microdilution (CLSI); format: cell-based; conditions: isolate 1046695; for MIC: Nakaseomyces glabratus, single agent
Experimental: as §1

C. krusei 975691 = experiment: Checkerboard broth microdilution (CLSI); format: cell-based
Experimental: as §1

C. krusei ATCC 6258 = experiment: Checkerboard broth microdilution (CLSI); format: cell-based; conditions: isolate ATCC 6258
Experimental: as §1

C. parapsilosis 1048737 = experiment: Checkerboard broth microdilution (CLSI); format: cell-based; conditions: isolate 1048737; for MIC: single agent
Experimental: as §1

[1] = test system: C. parapsilosis ATCC 22019; experiment: Checkerboard broth microdilution (CLSI); format: cell-based; conditions: isolate ATCC 22019
Experimental: as §1

C. tropicalis 1046709 = experiment: Checkerboard broth microdilution (CLSI); format: cell-based; conditions: isolate 1046709; for MIC: Candida tropicalis, single agent
Experimental: as §1

A. flavus ATCC 204304 = experiment: Checkerboard broth microdilution (CLSI); format: cell-based; conditions: isolate ATCC 204304; for MIC: Aspergillus flavus, ATCC204304, single agent
Experimental: as §1

A. flavus SC 1085986 = experiment: Checkerboard broth microdilution (CLSI); format: cell-based; conditions: isolate 1085986; for MIC: Aspergillus flavus, single agent
Experimental: as §1

A. fumigatus 1077391 = experiment: Checkerboard broth microdilution (CLSI); format: cell-based; conditions: isolate 1077391; for MIC: Aspergillus fumigatus, single agent
Experimental: as §1

[2] = test system: A. fumigatus ATCC MYA-3626; experiment: Checkerboard broth microdilution (CLSI); format: cell-based; conditions: isolate ATCC MYA-3626; for MIC: single agent
Experimental: as §1

F. oxysporum SC 1087597 = experiment: Checkerboard broth microdilution (CLSI); format: cell-based; conditions: isolate 1087597; for MIC: Fusarium oxysporum, single agent
Experimental: as §1

F. solani SC 1047542 = experiment: Checkerboard broth microdilution (CLSI); format: cell-based; conditions: isolate 1047542; for MIC: Fusarium solani, single agent
Experimental: as §1

[3] = UV-Vis and PCA based sterol sponge binding assay; conditions: apparent KD, sterol sponge aggregates in vitro
Source text: However, an alternative method was developed for reproducible formation of homogenous AmB and C2′epiAmB sterol sponge aggregates in vitro. Using these preparations, a quantitative UV-Vis and Principle Component (PCA) based assay for determining the apparent Kis for the binding of AmB and C2′epiAmB to ergosterol and cholesterol (FIGS. 2A-2D) was developed.

Candida albicans SN250 = experiment: MIC against Candida albicans SN250; format: cell-based
yeast cells = experiment: Antifungal activity after ergosterol pre-complexation of the sponge; format: cell-based; conditions: sponge pre-complexed with ergosterol
Source text: Anderson, T. M. et al., Nat Chem Biol 2014, 10 (5), 400-6. […] Davis, S. A., et al., Nat Chem Biol 2015, 11 (7), 481-7. To test whether C2′epiAmB primarily kills cells via the same sterol sponge mechanism, the C2′epiAmB sponge was similarly pre-complexed with ergosterol. […] Thus, C2′epiAmB similarly kills yeast primarily via sterol binding, and, by extension, the new compounds targeted in this application are expected to have a similar barrier to fungal resistance that has been observed for the past 50+years with AmB.

[4] = Candida albicans, read-out: MIC
[5] = Pichia kudriavzevii, ATCC6258, single agent, read-out: MIC
[6] = Lodderomyces parapsilosis, read-out: MIC
[7] = Lodderomyces parapsilosis, ATCC22019, single agent, read-out: MIC
[8] = Aspergillus fumigatus, read-out: MIC
[9] = Pichia kudriavzevii, single agent, isolate 975691, read-out: MIC

SMILES: OC(Cn1cncn1)(Cn1cncn1)c1ccc(F)cc1F [Fluconazole, fluconazole]
- MIC (C. albicans 967374; [4]): 16 µg/mL
- MIC (C. auris 1081160): > 128 µg/mL
- MIC (C. glabrata 1046695): 128 µg/mL
- MIC (C. krusei 975691; Pichia kudriavzevii): 128 µg/mL
- MIC (C. krusei ATCC 6258; [5]): 32 µg/mL
- MIC (C. parapsilosis 1048737; [6]): 0.5 µg/mL
- MIC (C. parapsilosis 1048737): 1 µg/mL
- MIC [1, 7]: 1 µg/mL
- MIC ([1]; single agent): 2 µg/mL
- MIC (C. tropicalis 1046709): 4 µg/mL

SMILES: CC(=O)N1CCN(c2ccc(OCC3COC(Cn4ccnc4)(c4ccc(Cl)cc4Cl)O3)cc2)CC1 (centres unmarked) [Ketoconazole, ketoconazole]
- MIC (A. flavus ATCC 204304): 2 µg/mL
- MIC (A. flavus SC 1085986): 4 µg/mL
- MIC (A. fumigatus 1077391): > 8 µg/mL
- MIC [2, 8]: 8 µg/mL
- MIC [2]: >8 µg/mL
- MIC (C. albicans 967374; [4]): 0.25 µg/mL
- MIC (C. auris 1081160; read-out: MIC): 0.5 µg/mL
- MIC (C. glabrata 1046695; read-out: MIC): 4 µg/mL
- MIC (C. krusei 975691; [9]): 1 µg/mL
- MIC (C. krusei 975691; single agent, isolate 975691): 2 µg/mL
- MIC (C. krusei ATCC 6258; [5]): 0.25 µg/mL
- MIC (C. parapsilosis 1048737; [6]): 0.015 µg/mL
- MIC (C. parapsilosis 1048737): 0.03 µg/mL
- MIC [1, 7]: 0.06 µg/mL
- MIC (C. tropicalis 1046709): 0.12 µg/mL
- MIC (F. oxysporum SC 1087597): > 8 µg/mL
- MIC (F. solani SC 1047542): > 8 µg/mL

SMILES: C[C@@H]1[C@H](O)[C@@H](C)/C=C/C=C/C=C/C=C/C=C/C=C/C=C/[C@H](O[C@@H]2O[C@H](C)[C@@H](O)[C@H](N)[C@@H]2O)C[C@@H]2O[C@](O)(C[C@@H](O)C[C@@H](O)[C@H](O)CC[C@@H](O)C[C@@H](O)CC(=O)O[C@H]1C)C[C@H](O)[C@H]2C(=O)O [AmB, Amphotericin B]
- MIC (A. flavus ATCC 204304): 1 µg/mL
- MIC when added 1 log2 unit lower of azoles' MIC (A. flavus ATCC 204304; with ketoconazole): 1 mg/L
- MIC when added 1 log2 unit lower of azoles' MIC (A. flavus ATCC 204304; with voriconazole): 0.5 mg/L
- MIC (A. flavus SC 1085986): 2 µg/mL
- MIC when added 1 log2 unit lower of azoles' MIC (A. flavus SC 1085986; with ketoconazole): 1 mg/L
- MIC when added 1 log2 unit lower of azoles' MIC (A. flavus SC 1085986; with voriconazole): 2 mg/L
- MIC (A. fumigatus 1077391): 1 µg/mL
- MIC when added 1 log2 unit lower of azoles' MIC (A. fumigatus 1077391; with ketoconazole): 0.06 mg/L
- MIC when added 1 log2 unit lower of azoles' MIC (A. fumigatus 1077391; with voriconazole): 1 mg/L
- MIC [2, 8]: 1 µg/mL
- MIC when added 1 log2 unit lower of azoles' MIC ([2]; with ketoconazole): 2 mg/L
- MIC when added 1 log2 unit lower of azoles' MIC ([2]; with voriconazole): 1 mg/L
- MIC (C. albicans 967374; [4]): 0.5 µg/mL
- MIC (C. albicans 967374): 1 µg/mL
- MIC when added 1 log2 unit lower of azoles' MIC (C. albicans 967374; with fluconazole): 0.5 mg/L
- MIC when added 1 log2 unit lower of azoles' MIC (C. albicans 967374; with ketoconazole): 0.5 mg/L
- MIC when added 1 log2 unit lower of azoles' MIC (C. albicans 967374; with voriconazole): 0.5 mg/L
- MIC (C. auris 1081160; read-out: MIC): 1 µg/mL
- MIC when added 1 log2 unit lower of azoles' MIC (C. auris 1081160; with fluconazole): 0.06 mg/L
- MIC when added 1 log2 unit lower of azoles' MIC (C. auris 1081160; with ketoconazole): 1 mg/L
- MIC when added 1 log2 unit lower of azoles' MIC (C. auris 1081160; with voriconazole): 1 mg/L
- MIC (C. glabrata 1046695; read-out: MIC): 0.5 µg/mL
- MIC when added 1 log2 unit lower of azoles' MIC (C. glabrata 1046695; with fluconazole): 0.5 mg/L
- MIC when added 1 log2 unit lower of azoles' MIC (C. glabrata 1046695; with ketoconazole): 0.06 mg/L
- MIC when added 1 log2 unit lower of azoles' MIC (C. glabrata 1046695; with voriconazole): 0.5 mg/L
- MIC (C. krusei 975691; [9]): 1 µg/mL
- MIC (C. krusei 975691; single agent, isolate 975691): 0.5 µg/mL
- MIC when added 1 log2 unit lower of azoles' MIC (C. krusei 975691; with fluconazole, isolate 975691): 0.5 mg/L
- MIC when added 1 log2 unit lower of azoles' MIC (C. krusei 975691; with ketoconazole, isolate 975691): 0.5 mg/L
- MIC when added 1 log2 unit lower of azoles' MIC (C. krusei 975691; with voriconazole, isolate 975691): 0.5 mg/L
- MIC (C. krusei ATCC 6258; [5]): 0.5 µg/mL
- MIC (C. krusei ATCC 6258; single agent): 1 µg/mL
- MIC when added 1 log2 unit lower of azoles' MIC (C. krusei ATCC 6258; with fluconazole): 0.5 mg/L
- MIC when added 1 log2 unit lower of azoles' MIC (C. krusei ATCC 6258; with ketoconazole): 0.5 mg/L
- MIC when added 1 log2 unit lower of azoles' MIC (C. krusei ATCC 6258; with voriconazole): 0.5 mg/L
- MIC (C. parapsilosis 1048737; [6]): 0.5 µg/mL
- MIC when added 1 log2 unit lower of azoles' MIC (C. parapsilosis 1048737; with fluconazole): 0.25 mg/L
- MIC when added 1 log2 unit lower of azoles' MIC (C. parapsilosis 1048737; with ketoconazole): 0.25 mg/L
- MIC when added 1 log2 unit lower of azoles' MIC (C. parapsilosis 1048737; with voriconazole): 0.25 mg/L
- MIC when added 1 log2 unit lower of azoles' MIC ([1]; with fluconazole): 0.25 mg/L
- MIC when added 1 log2 unit lower of azoles' MIC ([1]; with ketoconazole): 0.25 mg/L
- MIC when added 1 log2 unit lower of azoles' MIC ([1]; with voriconazole): 0.5 mg/L
- MIC (C. tropicalis 1046709): 0.5 µg/mL
- MIC when added 1 log2 unit lower of azoles' MIC (C. tropicalis 1046709; with fluconazole): 0.25 mg/L
- MIC when added 1 log2 unit lower of azoles' MIC (C. tropicalis 1046709; with ketoconazole): 0.5 mg/L
- MIC when added 1 log2 unit lower of azoles' MIC (C. tropicalis 1046709; with voriconazole): 0.5 mg/L
- MIC (F. oxysporum SC 1087597): 2 µg/mL
- MIC when added 1 log2 unit lower of azoles' MIC (F. oxysporum SC 1087597; with ketoconazole): 0.06 mg/L
- MIC when added 1 log2 unit lower of azoles' MIC (F. oxysporum SC 1087597; with voriconazole): 2 mg/L
- MIC (F. solani SC 1047542): 2 µg/mL
- MIC when added 1 log2 unit lower of azoles' MIC (F. solani SC 1047542; with ketoconazole): 0.06 mg/L
- MIC when added 1 log2 unit lower of azoles' MIC (F. solani SC 1047542; with voriconazole): 2 mg/L
- Kd ([3]; read-out: KD,chol): 840 nM
- Kd ([3]; read-out: KD,erg): 120 nM
- MIC (Candida albicans SN250): 0.15 µM (≈ 0.139 µg/mL)
- change of potency upon ergosterol pre-complexation (yeast cells): same reduction in potency
